The values below come from ChEMBL document CHEMBL1144226, “Design and synthesis of 2-amino-isoxazolopyridines as Polo-like kinase inhibitors” (Bioorg Med Chem Lett, 2008).

The nature of one assay: cells. To be noted: Homo sapiens, HCT-116.
Assay [1] concerns the target Serine/threonine-protein kinase PLK2 (Homo sapiens, UniProt Q9NYY3).
For assay [2], the target named is Serine/threonine-protein kinase PLK3 (Homo sapiens, UniProt Q9H4B4).
Assay [3] concerns the target Serine/threonine-protein kinase PLK1 (Homo sapiens, UniProt P53350).
The next assay deals with HCT-116. In words: Effect on morphology in human HCT 116 cells assessed as monopolar spindle phenotype. It is filed as functional, cell-based.

Each structure is given as a SMILES string. Active and inactive are the calls of the source. No cut-off for these calls is given here.

Serine/threonine-protein kinase PLK1, sequence (P53350 whole entry): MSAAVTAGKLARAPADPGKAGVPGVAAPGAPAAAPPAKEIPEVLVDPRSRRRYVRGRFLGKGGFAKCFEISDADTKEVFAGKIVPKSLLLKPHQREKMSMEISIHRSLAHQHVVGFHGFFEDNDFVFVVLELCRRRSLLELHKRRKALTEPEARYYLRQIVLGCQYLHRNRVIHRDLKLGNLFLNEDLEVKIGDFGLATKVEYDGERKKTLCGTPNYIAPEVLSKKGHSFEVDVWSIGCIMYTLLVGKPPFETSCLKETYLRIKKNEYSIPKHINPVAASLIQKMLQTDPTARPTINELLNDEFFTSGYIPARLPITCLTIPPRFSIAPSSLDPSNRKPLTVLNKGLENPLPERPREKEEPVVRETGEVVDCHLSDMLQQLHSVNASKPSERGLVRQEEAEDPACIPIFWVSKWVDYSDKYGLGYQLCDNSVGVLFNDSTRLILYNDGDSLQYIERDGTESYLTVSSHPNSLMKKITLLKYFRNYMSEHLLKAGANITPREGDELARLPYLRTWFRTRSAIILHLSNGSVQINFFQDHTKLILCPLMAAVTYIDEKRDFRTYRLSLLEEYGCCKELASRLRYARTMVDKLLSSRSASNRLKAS
Serine/threonine-protein kinase PLK3, sequence (Q9H4B4 whole entry): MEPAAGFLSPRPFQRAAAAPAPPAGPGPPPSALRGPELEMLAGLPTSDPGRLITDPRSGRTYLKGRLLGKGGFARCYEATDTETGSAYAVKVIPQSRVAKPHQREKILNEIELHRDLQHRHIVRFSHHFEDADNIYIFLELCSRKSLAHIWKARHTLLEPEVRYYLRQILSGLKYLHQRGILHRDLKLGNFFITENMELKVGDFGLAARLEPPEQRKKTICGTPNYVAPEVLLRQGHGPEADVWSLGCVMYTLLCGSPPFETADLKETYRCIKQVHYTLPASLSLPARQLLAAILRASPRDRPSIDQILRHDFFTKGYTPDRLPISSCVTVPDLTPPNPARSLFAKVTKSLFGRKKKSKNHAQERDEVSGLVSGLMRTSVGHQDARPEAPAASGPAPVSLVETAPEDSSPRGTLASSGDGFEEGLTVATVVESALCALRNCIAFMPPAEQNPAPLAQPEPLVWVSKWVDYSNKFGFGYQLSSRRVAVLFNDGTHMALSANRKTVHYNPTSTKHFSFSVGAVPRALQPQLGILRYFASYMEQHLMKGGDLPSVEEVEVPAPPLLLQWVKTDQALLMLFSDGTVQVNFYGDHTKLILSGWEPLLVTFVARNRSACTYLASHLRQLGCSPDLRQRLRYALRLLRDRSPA
Serine/threonine-protein kinase PLK2, sequence (Q9NYY3 whole entry): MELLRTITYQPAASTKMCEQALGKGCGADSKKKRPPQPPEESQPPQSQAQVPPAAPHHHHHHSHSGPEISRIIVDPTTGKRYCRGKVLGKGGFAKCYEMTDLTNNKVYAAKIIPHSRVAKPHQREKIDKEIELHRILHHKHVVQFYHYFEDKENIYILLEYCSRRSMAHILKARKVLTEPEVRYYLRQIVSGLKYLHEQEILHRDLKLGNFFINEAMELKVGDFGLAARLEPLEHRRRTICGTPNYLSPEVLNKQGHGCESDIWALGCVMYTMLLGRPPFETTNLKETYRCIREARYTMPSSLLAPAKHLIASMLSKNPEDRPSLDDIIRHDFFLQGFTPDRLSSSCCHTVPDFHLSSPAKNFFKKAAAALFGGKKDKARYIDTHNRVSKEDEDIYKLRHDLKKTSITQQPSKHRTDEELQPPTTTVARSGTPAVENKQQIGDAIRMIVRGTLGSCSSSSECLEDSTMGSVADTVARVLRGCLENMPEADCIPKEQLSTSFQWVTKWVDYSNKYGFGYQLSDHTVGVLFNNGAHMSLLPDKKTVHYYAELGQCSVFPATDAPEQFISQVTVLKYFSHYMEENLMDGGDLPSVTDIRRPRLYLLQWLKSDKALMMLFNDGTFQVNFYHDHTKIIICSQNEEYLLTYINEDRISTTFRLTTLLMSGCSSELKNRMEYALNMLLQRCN

The term IC50 denotes the point on the concentration scale where inhibition reaches its midpoint. Read a low IC50 as higher potency. The molecule `Cc1ccc(-c2noc3cnc(N[C@@H](C)c4ccccc4)cc23)cc1` gave a half-maximal inhibitory concentration (IC50) in the assay “cells” of over 20 µM.

On to `C[C@H](Nc1cc2c(-c3ccccc3)noc2cn1)c1ccccc1`, for which the IC50 in the assay “cells” was over 20 µM. The same measure, in the same setting: the result for `C[C@H](Nc1cc2c(-c3cc(Cl)cc(CCCO)c3)noc2cn1)c1ccccc1` reads 10.2 µM. Regarding `C[C@H](Nc1cc2c(-c3ccc4c(c3)OCO4)noc2cn1)c1ccccc1`, the IC50 in “cells” worked out at 7.32 µM; in assay [1], 0.004 µM; in assay [2], 0.024 µM; in assay [3] it was 0.214 µM.

Consider `C[C@H](Nc1cc2c(Cc3ccccc3)noc2cn1)c1ccccc1`, for which the concentration for half-maximal inhibition (IC50) in assay [3] was over 20 µM. For `COc1ccc(-c2noc3cnc(N[C@@H](C)c4ccccc4)cc23)cc1OC`, the IC50 in “cells” is over 20 µM. With `Cc1cccc(-c2noc3cnc(N[C@@H](C)c4ccccc4)cc23)c1`, in the assay “cells”, the IC50 was 6.69 µM. As for `C[C@H](Nc1cc2c(-c3cc(Cl)cc(CCC(N)=O)c3)noc2cn1)c1ccccc1`, in the assay “cells”, the 50% inhibitory concentration (IC50) turned out to be 8.35 µM. The result in the assay with HCT-116 was Active. Turning to `C[C@H](Nc1cc2c(-c3cccc(Cl)c3)noc2cn1)c1ccccc1`, in “cells”, the IC50 was over 20 µM. In turn, `Cc1cc(C)cc(-c2noc3cnc(N[C@@H](C)c4ccccc4)cc23)c1` had a concentration for half-maximal inhibition (IC50) in the assay “cells” of over 20 µM.
